Consider 25 compounds from patent publication US11814367B2, “Inhibitors of glycogen synthase 1 (GYS1) and methods of use thereof” (Maze Therapeutics, Inc., priority 2021, dated 2023).

Assay [1] addresses hGYS1 enzyme (recombinant hGYS1/GN1 protein) (Homo sapiens (Human), UniProt P13807). In words: GYS1 coupled enzyme assay (PK/LDH). Type of assay: biochemical. The conditions noted are these: hGYS1/GN1 50 nM, UDP-Glucose 0.8 mM, G6P 1 mM; geometric mean of at least 2 runs.
In assay [2] the target is hGYS2 enzyme (recombinant hGYS2/GN1 protein) (Homo sapiens (Human), UniProt P54840). In words: GYS2 coupled enzyme assay (PK/LDH). Type of assay: biochemical. As to conditions: geometric mean of at least 2 assay runs on separate days, read-out: Avg_IC50. An outline of the steps: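 hGYS2/GN1 200 nM; UDP-Glc 2 mM; glycogen 0.2%; G6P 2 mM; PEP 2 mM, NADH 0.6 mM, PK/LDH 20 U/mL. 50 mM Tris pH 7.5, MgCl2, KCl, BSA, TCEP, 2.5% DMSO. Kinetic A340, 10 min. IC50 = geomean of ≥2 runs.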

A value given as a limit tells only on which side of the number the result lay.

Chain of hGYS2 enzyme (recombinant hGYS2/GN1 protein) (P54840 whole entry): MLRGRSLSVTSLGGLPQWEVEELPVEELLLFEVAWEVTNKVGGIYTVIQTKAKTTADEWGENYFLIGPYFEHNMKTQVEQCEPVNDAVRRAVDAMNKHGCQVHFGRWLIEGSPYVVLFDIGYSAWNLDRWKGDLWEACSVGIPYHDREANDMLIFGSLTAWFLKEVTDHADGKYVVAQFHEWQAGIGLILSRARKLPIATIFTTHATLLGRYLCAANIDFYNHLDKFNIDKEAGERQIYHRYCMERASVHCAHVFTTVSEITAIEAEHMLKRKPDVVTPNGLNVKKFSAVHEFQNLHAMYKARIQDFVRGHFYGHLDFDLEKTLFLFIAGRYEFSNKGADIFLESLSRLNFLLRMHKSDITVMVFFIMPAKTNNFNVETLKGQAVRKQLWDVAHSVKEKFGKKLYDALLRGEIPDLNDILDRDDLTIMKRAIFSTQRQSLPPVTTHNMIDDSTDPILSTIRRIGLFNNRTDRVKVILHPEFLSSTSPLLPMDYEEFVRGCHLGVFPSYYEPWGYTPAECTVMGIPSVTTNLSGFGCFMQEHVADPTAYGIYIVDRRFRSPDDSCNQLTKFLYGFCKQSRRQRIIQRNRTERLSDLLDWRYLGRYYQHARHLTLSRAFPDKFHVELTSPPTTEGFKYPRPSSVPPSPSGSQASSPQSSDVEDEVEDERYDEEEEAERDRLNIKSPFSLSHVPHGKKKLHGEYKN
Chain of hGYS2 enzyme (recombinant hGYS2/GN1 protein) (P46976 whole entry partner): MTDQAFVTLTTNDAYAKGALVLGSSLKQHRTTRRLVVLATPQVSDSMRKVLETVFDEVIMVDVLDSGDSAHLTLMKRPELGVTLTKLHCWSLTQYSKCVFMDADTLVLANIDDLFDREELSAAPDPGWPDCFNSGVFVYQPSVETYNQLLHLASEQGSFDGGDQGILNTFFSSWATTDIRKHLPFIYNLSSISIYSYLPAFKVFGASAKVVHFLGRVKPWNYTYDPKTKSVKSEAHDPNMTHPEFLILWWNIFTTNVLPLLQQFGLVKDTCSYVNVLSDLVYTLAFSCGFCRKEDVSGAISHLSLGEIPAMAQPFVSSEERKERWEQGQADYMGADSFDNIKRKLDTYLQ
Chain of hGYS1 enzyme (recombinant hGYS1/GN1 protein) (P13807 whole entry): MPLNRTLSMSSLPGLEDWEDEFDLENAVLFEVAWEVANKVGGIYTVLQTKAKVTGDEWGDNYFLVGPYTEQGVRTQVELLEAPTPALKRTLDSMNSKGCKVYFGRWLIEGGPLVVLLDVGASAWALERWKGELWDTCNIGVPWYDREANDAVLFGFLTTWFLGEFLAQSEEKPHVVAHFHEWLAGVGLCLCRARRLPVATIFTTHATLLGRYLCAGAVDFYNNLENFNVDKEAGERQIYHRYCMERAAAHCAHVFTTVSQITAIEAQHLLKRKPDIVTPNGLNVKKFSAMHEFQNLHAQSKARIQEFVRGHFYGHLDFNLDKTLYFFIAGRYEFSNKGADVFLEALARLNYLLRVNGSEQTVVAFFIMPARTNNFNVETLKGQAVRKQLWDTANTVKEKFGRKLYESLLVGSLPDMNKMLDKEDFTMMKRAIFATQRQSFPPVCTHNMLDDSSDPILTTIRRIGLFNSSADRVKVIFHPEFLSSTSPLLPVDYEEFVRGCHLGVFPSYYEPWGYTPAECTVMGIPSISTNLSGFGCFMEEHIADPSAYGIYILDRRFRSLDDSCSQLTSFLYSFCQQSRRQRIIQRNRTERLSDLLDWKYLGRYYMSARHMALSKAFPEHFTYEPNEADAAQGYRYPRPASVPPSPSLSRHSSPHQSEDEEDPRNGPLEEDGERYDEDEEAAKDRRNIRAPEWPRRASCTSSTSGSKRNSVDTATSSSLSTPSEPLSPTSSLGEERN
Chain of hGYS1 enzyme (recombinant hGYS1/GN1 protein) (P46976 whole entry partner): as the sequence (P46976 whole entry partner) above

For the compound `CC(=O)N1C[C@@H](O)C[C@H]1C(=O)N[C@@H](c1ccccc1)c1ccc(C(C)C)cc1` [Compound 204, (2S,4S)-1-acetyl-4-hydroxy-N-[(S)-phenyl[4-(propan-2-yl)phenyl]methyl]pyrrolidine-2-carboxamide], the IC50 in assay [1] was 3530 nM; in assay [2], over 100000 nM.
Consider `CC(=O)N1C[C@H](O)C[C@H]1C(=O)N[C@@H](c1ccccc1)c1ccc(C(C)C)cc1` [Compound 205, (2S,4R)-1-acetyl-4-hydroxy-N-[(S)-phenyl[4-(propan-2-yl)phenyl]methyl]pyrrolidine-2-carboxamide], for which the IC50 in assay [1] is 3740 nM; in assay [2] it was over 100000 nM.
The corresponding values for `CC(=O)N1CC[C@H](O)[C@H]1C(=O)N[C@@H](c1ccccc1)c1ccc(C(C)C)cc1` [Compound 206, (2S,3S)-1-acetyl-3-hydroxy-N-[(S)-phenyl[4-(propan-2-yl)phenyl]methyl]pyrrolidine-2-carboxamide] are 2480 nM and over 100000 nM.
In the case of `CC(=O)N1C[C@H](F)C[C@H]1C(=O)N[C@@H](c1ccccc1)c1ccc(C(C)C)cc1` [Compound 207, (2S,4R)-1-acetyl-4-fluoro-N-[(S)-phenyl[4-(propan-2-yl)phenyl]methyl]pyrrolidine-2-carboxamide], the IC50 in assay [1] was 387 nM; in assay [2], over 100000 nM.
As for `CC(=O)N[C@@H](CC(N)=O)C(=O)N1C[C@H](F)C[C@H]1C(=O)N[C@@H](c1ccccc1)c1ccc(C(C)C)cc1` [Compound 208, (2S,4R)-1-[(2S)-3-carbamoyl-2-acetamidopropanoyl]-4-fluoro-N-[(S)-phenyl[4-(propan-2-yl)phenyl]methyl]pyrrolidine-2-carboxamide], the IC50 in assay [1] was 113 nM; in assay [2], over 100000 nM.
Take `CC(=O)N[C@H](CC(N)=O)C(=O)N1C[C@H](F)C[C@H]1C(=O)N[C@@H](c1ccccc1)c1ccc(C(C)C)cc1` [Compound 209, (2S,4R)-1-[(2R)-3-carbamoyl-2-acetamidopropanoyl]-4-fluoro-N-[(S)-phenyl[4-(propan-2-yl)phenyl]methyl]pyrrolidine-2-carboxamide]: the IC50 in assay [1] is 91 nM; in assay [2], over 100000 nM.
The corresponding values for `CC(C)c1ccc([C@@H](NC(=O)[C@@H]2CCCN2C(=O)CNC(=O)OC(C)(C)C)c2ccccc2)cc1` [Compound 210, tert-butyl N-{2-oxo-2-[(2S)-2-{[(S)-phenyl[4-(propan-2-yl)phenyl]methyl]carbamoyl}pyrrolidin-1-yl]ethyl}carbamate] are 107 nM and over 100000 nM.
The corresponding values for `CC(C)c1ccc([C@@H](NC(=O)[C@@H]2CCCN2C(=O)CCC(N)=O)c2ccccc2)cc1` [Compound 213, (2S)-1-(3-carbamoylpropanoyl)-N-[(S)-phenyl[4-(propan-2-yl)phenyl]methyl]pyrrolidine-2-carboxamide] are 282 nM and over 100000 nM.
For `CC(=O)N1[C@@H](C)CC[C@H]1C(=O)N[C@@H](c1ccccc1)c1ccc(C(C)C)cc1` [Compound 214, (2S,5S)-1-acetyl-5-methyl-N-[(S)-phenyl[4-(propan-2-yl)phenyl]methyl]pyrrolidine-2-carboxamide] the same measures were 853 nM and over 100000 nM.
In the case of `CC(C)c1ccc([C@@H](NC(=O)[C@@H]2CCCN2C(=O)Cc2ncco2)c2ccccc2)cc1` [Compound 216, (2S)-1-[2-(1,3-oxazol-2-yl)acetyl]-N-[(S)-phenyl[4-(propan-2-yl)phenyl]methyl]pyrrolidine-2-carboxamide], the IC50 is 247 nM in assay [1] and over 100000 nM in assay [2].
The corresponding values for `CC(C)c1ccc([C@@H](NC(=O)[C@@H]2C[C@@H](F)CN2C(=O)CN2CCOC2=O)c2ccccc2)cc1` [Compound 217] are 96 nM and over 100000 nM.
With `Cc1nnnn1CC(=O)N1C[C@H](F)C[C@H]1C(=O)N[C@@H](c1ccccc1)c1ccc(C(C)C)cc1` [Compound 226, (2RS,4R)-4-fluoro-1-[2-(5-methyl-1H-1,2,3-tetrazol-1-yl)acetyl]-N-[(S)-phenyl[4-(propan-2-yl)phenyl]methyl]pyrrolidine-2-carboxamide], the IC50 was 83 nM in assay [1] and over 100000 nM in assay [2].
For `CC(C)c1ccc([C@@H](NC(=O)[C@@H]2C[C@@H](F)CN2C(=O)Cc2ccon2)c2ccccc2)cc1` [Compound 231, (2S,4R)-4-fluoro-1-[2-(1,2-oxazol-3-yl)acetyl]-N-[(S)-phenyl[4-(propan-2-yl)phenyl]methyl]pyrrolidine-2-carboxamide] the same measures were 105 nM and over 100000 nM.
As for `Cc1n[nH]c(CC(=O)N2C[C@H](F)C[C@H]2C(=O)N[C@@H](c2ccccc2)c2ccc(C(C)C)cc2)n1` [Compound 232, (2S,4R)-4-fluoro-1-[2-(3-methyl-1H-1,2,4-triazol-5-yl)acetyl]-N-[(S)-phenyl[4-(propan-2-yl)phenyl]methyl]pyrrolidine-2-carboxamide], the figures for the IC50 in assay [1] and in assay [2] were 25 nM and over 100000 nM, respectively.
Consider `CC(C)c1ccc([C@@H](NC(=O)[C@@H]2C[C@@H](F)CN2C(=O)C(C)(C)c2ncn[nH]2)c2ccccc2)cc1` [Compound 233, (2S,4R)-4-fluoro-1-[2-methyl-2-(1H-1,2,4-triazol-5-yl)propanoyl]-N-[(S)-phenyl[4-(propan-2-yl)phenyl]methyl]pyrrolidine-2-carboxamide], for which the IC50 in assay [1] is 252 nM; in assay [2], over 100000 nM.
With `CC(C)c1ccc([C@@H](NC(=O)[C@@H]2C[C@@H](F)CN2C(=O)Cc2nnc(CNC(=O)OC(C)(C)C)o2)c2ccccc2)cc1` [Compound 237, tert-butyl N-[(5-{2-[(2S,4R)-4-fluoro-2-{[(S)-phenyl[4-(propan-2-yl)phenyl]methyl]carbamoyl}pyrrolidin-1-yl]-2-oxoethyl}-1,3,4-oxadiazol-2-yl)methyl]carbamate], the IC50 in assay [1] is 54 nM; in assay [2], over 100000 nM.
For `CC(C)c1ccc([C@@H](NC(=O)[C@@H]2C[C@@H](F)CN2C(=O)Cc2nnc(CN)o2)c2ccccc2)cc1` [Compound 238, (2S,4R)-1-{2-[5-(aminomethyl)-1,3,4-oxadiazol-2-yl]acetyl}-4-fluoro-N-[(S)-phenyl[4-(propan-2-yl)phenyl]methyl]pyrrolidine-2-carboxamide], the results for the IC50 in assay [1] and in assay [2] were 46 nM and over 100000 nM, respectively.
For `CC(=O)N1CCC[C@H]1C(=O)N[C@@H](c1ccccc1)c1ccc(C(C)C)cn1` [Compound 245, (2S)-1-acetyl-N-[(S)-phenyl[5-(propan-2-yl)pyridin-2-yl]methyl]pyrrolidine-2-carboxamide], the results for the IC50 in assay [1] and in assay [2] were 1310 nM and over 100000 nM, respectively.
Take `CC(C)c1ccc([C@@H](NC(=O)[C@@H]2C[C@@H](F)CN2C(=O)Cn2cn[nH]c2=O)c2ccccc2)nc1` [Compound 288, (2S,4R)-4-fluoro-1-[2-(5-oxo-4,5-dihydro-1H-1,2,4-triazol-4-yl)acetyl]-N-[(S)-phenyl[5-(propan-2-yl)pyridin-2-yl]methyl]pyrrolidine-2-carboxamide]: the IC50 in assay [1] was 109 nM; in assay [2], over 100000 nM.
For `CC(C)c1ccc([C@@H](NC(=O)[C@@H]2C[C@@H](F)CN2C(=O)CCn2nc3ccccn3c2=O)c2ccccc2)nc1` [Compound 289, (2S,4R)-4-fluoro-1-(3-{3-oxo-2H,3H-[1,2,4]triazolo[4,3-a]pyridin-2-yl}propanoyl)-N-[(S)-phenyl[5-(propan-2-yl)pyridin-2-yl]methyl]pyrrolidine-2-carboxamide] the same measures were 56 nM and over 100000 nM.
For `CC(C)c1ccc([C@@H](NC(=O)[C@@H]2C[C@@H](F)CN2C(=O)CNC(=O)N2CC(F)(F)C2)c2ccccc2)nc1` [Compound 290, (2S,4R)-1-{2-[(3,3-difluoroazetidine-1-carbonyl]amino]acetyl}-4-fluoro-N-[(S)-phenyl[5-(propan-2-yl)pyridin-2-yl]methyl]pyrrolidine-2-carboxamide] the same measures were 56 nM and over 100000 nM.
For `CC(C)c1ccc([C@@H](NC(=O)[C@@H]2C[C@@H](F)CN2C(=O)CNC(=O)N2CC(C(F)(F)F)C2)c2ccccc2)nc1` [Compound 291, (2S,4R)-4-fluoro-N-[(S)-phenyl[5-(propan-2-yl)pyridin-2-yl]methyl]-1-(2-{[3-(trifluoromethyl)azetidin-1-carbonyl]amino}acetyl) pyrrolidine-2-carboxamide] the same measures were 53 nM and over 100000 nM.
Take `CC(C)c1ccc([C@@H](NC(=O)[C@@H]2C[C@@H](F)CN2C(=O)Cn2cccn2)c2ccccc2)nc1` [Compound 292, (2S,4R)-4-fluoro-N-[(S)-phenyl[5-(propan-2-yl)pyridin-2-yl]methyl]-1-[2-(1H-pyrazol-1-yl)acetyl]pyrrolidine-2-carboxamide]: the IC50 in assay [1] is 111 nM; in assay [2], over 100000 nM.
The corresponding values for `CC(C)c1ccc([C@@H](NC(=O)[C@@H]2C[C@@H]3C[C@@H]3N2C(=O)Cc2cnn[nH]2)c2ccccc2)cc1F` [Compound 324, (1S,3S,5S)-N-[(S)-[3-fluoro-4-(propan-2-yl)phenyl](phenyl)methyl]-2-[2-(1H-1,2,3-triazol-5-yl)acetyl]-2-azabicyclo[3.1.0]hexane-3-carboxamide] are 142 nM and over 100000 nM.
The corresponding values for `CC(C)c1ccc([C@@H](NC(=O)[C@@H]2[C@H]3C[C@H]3CN2C(=O)Cc2cnn[nH]2)c2ccccc2)cc1F` [Compound 325, (1S,2S,5R)-N-[(S)-[3-fluoro-4-(propan-2-yl)phenyl](phenyl)methyl]-3-[2-(1H-1,2,3-triazol-5-yl)acetyl]-3-azabicyclo[3.1.0]hexane-2-carboxamide] are 75 nM and over 100000 nM.
